{
  "source": "patent US20070207980A1",
  "about": "“Chp-gemcitabine Combination Agents And Their Use As Anti-Tumor Agents” (priority 2003, published 2007)",
  "key": {"A498": {"system": "A498", "assay": "Cell line screening of CHP anti-proliferation activity (chemosensitivity MTT assay)", "type": "cell-based", "conditions": "Renal cell lines", "method": "(§1) Unless otherwise stated, cell lines from the American Type Culture Collection (ATCC, Rockville, Md.) were used and cultured to confluence in a monolayer in RPMI-1640 bicarbonate medium (Seromed, Berlin, Germany) in an incubator ([…], 37° C.). The cells were examined for mycoplasma contaminations. The medium included 10% heat-inactivated fetal calf serum (Seromed) and 4 mM glutamine. The cells were cultured and passaged according to standard procedures (0.03% trypsin with 0.02% EDTA, 3 times a week) . The cell number was determined using a TOA Sysmex micro-cell counter (TOA, Tokyo, Japan)."}, "A518": {"system": "A518", "assay": "Cell line screening of CHP anti-proliferation activity (chemosensitivity MTT assay)", "type": "cell-based", "conditions": "Melanoma", "method": "as §1"}, "ACHN": {"system": "ACHN", "assay": "Cell line screening of CHP anti-proliferation activity (chemosensitivity MTT assay)", "type": "cell-based", "conditions": "Renal cell lines", "method": "as §1"}, "ASPC1": {"system": "ASPC1", "assay": "Cell line screening of CHP anti-proliferation activity (chemosensitivity MTT assay)", "type": "cell-based", "conditions": "Pancreas cell lines", "method": "as §1"}, "B607": {"system": "B607", "assay": "Cell line screening of CHP anti-proliferation activity (chemosensitivity MTT assay)", "type": "cell-based", "conditions": "Melanoma", "method": "as §1"}, "BxPC3 [1]": {"system": "BxPC3", "assay": "Cell line screening of CHP anti-proliferation activity (chemosensitivity MTT assay)", "type": "cell-based", "conditions": "Pancreas cell lines", "method": "as §1"}, "CR01": {"system": "CR01", "assay": "Cell line screening of CHP anti-proliferation activity (chemosensitivity MTT assay)", "type": "cell-based", "conditions": "Carcinoids", "method": "as §1"}, "CR02": {"system": "CR02", "assay": "Cell line screening of CHP anti-proliferation activity (chemosensitivity MTT assay)", "type": "cell-based", "conditions": "Carcinoids", "method": "as §1"}, "Calc22": {"system": "Calc22", "assay": "Cell line screening of CHP anti-proliferation activity (chemosensitivity MTT assay)", "type": "cell-based", "conditions": "Osteoblasts", "method": "as §1"}, "Capanl": {"system": "Capanl", "assay": "Cell line screening of CHP anti-proliferation activity (chemosensitivity MTT assay)", "type": "cell-based", "conditions": "Pancreas cell lines", "method": "as §1"}, "Colo205": {"system": "Colo205", "assay": "Cell line screening of CHP anti-proliferation activity (chemosensitivity MTT assay)", "type": "cell-based", "conditions": "Colon cell lines", "method": "as §1"}, "Colo320DM": {"system": "Colo320DM", "assay": "Cell line screening of CHP anti-proliferation activity (chemosensitivity MTT assay)", "type": "cell-based", "conditions": "Colon cell lines", "method": "as §1"}, "DLD1": {"system": "DLD1", "assay": "Cell line screening of CHP anti-proliferation activity (chemosensitivity MTT assay)", "type": "cell-based", "conditions": "Colon cell lines", "method": "as §1"}, "Fib2 (PPH)": {"system": "Fib2 (PPH)", "assay": "Cell line screening of CHP anti-proliferation activity (chemosensitivity MTT assay)", "type": "cell-based", "conditions": "Fibroblasts", "method": "as §1"}, "Fib3 (PPH)": {"system": "Fib3 (PPH)", "assay": "Cell line screening of CHP anti-proliferation activity (chemosensitivity MTT assay)", "type": "cell-based", "conditions": "Fibroblasts", "method": "as §1"}, "HCT-15": {"system": "HCT-15", "assay": "Cell line screening of CHP anti-proliferation activity (chemosensitivity MTT assay)", "type": "cell-based", "conditions": "Colon cell lines", "method": "as §1"}, "HOS": {"system": "HOS", "assay": "Cell line screening of CHP anti-proliferation activity (chemosensitivity MTT assay)", "type": "cell-based", "conditions": "Osteosarcoma tissue", "method": "as §1"}, "HT29": {"system": "HT29", "assay": "Cell line screening of CHP anti-proliferation activity (chemosensitivity MTT assay)", "type": "cell-based", "conditions": "Colon cell lines", "method": "as §1"}, "JVSO": {"system": "JVSO", "assay": "Cell line screening of CHP anti-proliferation activity (chemosensitivity MTT assay)", "type": "cell-based", "conditions": "Melanoma", "method": "as §1"}, "K562": {"system": "K562", "assay": "Cell line screening of CHP anti-proliferation activity (chemosensitivity MTT assay)", "type": "cell-based", "conditions": "Leukemia cells", "method": "as §1"}, "MCF-7": {"system": "MCF-7", "assay": "Cell line screening of CHP anti-proliferation activity (chemosensitivity MTT assay)", "type": "cell-based", "conditions": "Breast tissue", "method": "as §1"}, "MDA-MBA231": {"system": "MDA-MBA231", "assay": "Cell line screening of CHP anti-proliferation activity (chemosensitivity MTT assay)", "type": "cell-based", "conditions": "Breast tissue", "method": "as §1"}, "MIAPaCa2": {"system": "MIAPaCa2", "assay": "Cell line screening of CHP anti-proliferation activity (chemosensitivity MTT assay)", "type": "cell-based", "conditions": "Pancreas cell lines", "method": "as §1"}, "Me128": {"system": "Me128", "assay": "Cell line screening of CHP anti-proliferation activity (chemosensitivity MTT assay)", "type": "cell-based", "conditions": "Melanoma", "method": "as §1"}, "PANC1": {"system": "PANC1", "assay": "Cell line screening of CHP anti-proliferation activity (chemosensitivity MTT assay)", "type": "cell-based", "conditions": "Pancreas cell lines", "method": "as §1"}, "PC3": {"system": "PC3", "assay": "Cell line screening of CHP anti-proliferation activity (chemosensitivity MTT assay)", "type": "cell-based", "conditions": "Prostate tissue", "method": "as §1"}, "SW480 (Ccl228)": {"system": "SW480 (Ccl228)", "assay": "Cell line screening of CHP anti-proliferation activity (chemosensitivity MTT assay)", "type": "cell-based", "conditions": "Colon cell lines", "method": "as §1"}, "SW620(Ccl227)": {"system": "SW620(Ccl227)", "assay": "Cell line screening of CHP anti-proliferation activity (chemosensitivity MTT assay)", "type": "cell-based", "conditions": "Colon cell lines", "method": "as §1"}, "T47D": {"system": "T47D", "assay": "Cell line screening of CHP anti-proliferation activity (chemosensitivity MTT assay)", "type": "cell-based", "conditions": "Breast tissue", "method": "as §1"}, "WI38": {"system": "WI38", "assay": "Cell line screening of CHP anti-proliferation activity (chemosensitivity MTT assay)", "type": "cell-based", "conditions": "Fibroblasts", "method": "as §1"}, "PANC-1 cells": {"system": "PANC-1 cells", "assay": "Effect of combined agents releasing gemcitabine first (Table 2)", "conditions": "no gemcitabine first", "quoted_text": "(§2) The chemosensitivity assay was performed in a 96-well microtiter plate with 10^4 cells per well and 100 μl of medium, and the components to be tested were supplied in a volume of 100 μl. All components were diluted on the microtiter plates, and the plates were incubated under cell culture conditions for 4 days, except for those tests wherein the ratio between application time and reaction was to be determined. The viability of the cells, including the mitochondrial activity, i.e., the ratio of cell survival rate and cell number, was determined using an MTT assay.\n(§3) Combined agents of the invention sequentially releasing CHP and gemcitabine were also tested. […] Agents were used in cell cultures, which agents initially release CHP, followed by gemcitabine after 24 hours and 48 hours, respectively. […] Combined agents were used which released 1 μg/ml gemcitabine, followed by CHP after 12, 24 and 48 hours, respectively."}, "BxPC3 [2]": {"system": "BxPC3", "assay": "Effect of combined agents releasing gemcitabine first (Table 2)", "conditions": "no gemcitabine first", "quoted_text": "as §2, §3"}},
  "data": [
    {"smiles": "O=C(O)[C@@H]1C[C@@H](O)CN1", "note": "(relative stereo) [CHP, cis-hydroxyproline]", "values": [
      {"measurement": "Reaction (CHP anti-proliferation activity)", "setting": "A498", "value": "−6", "unit": "%"},
      {"measurement": "Reaction (CHP anti-proliferation activity)", "setting": "A518", "value": "resistant"},
      {"measurement": "Reaction (CHP anti-proliferation activity)", "setting": "ACHN", "value": "resistant"},
      {"measurement": "Reaction (CHP anti-proliferation activity)", "setting": "ASPC1", "value": "−42", "unit": "%"},
      {"measurement": "Reaction (CHP anti-proliferation activity)", "setting": "B607", "value": "−12", "unit": "%"},
      {"measurement": "Reaction (CHP anti-proliferation activity)", "setting": "BxPC3 [1]", "value": "−41", "unit": "%"},
      {"measurement": "Reaction (CHP anti-proliferation activity)", "setting": "CR01", "value": "−35", "unit": "%"},
      {"measurement": "Reaction (CHP anti-proliferation activity)", "setting": "CR02", "value": "−13", "unit": "%"},
      {"measurement": "Reaction (CHP anti-proliferation activity)", "setting": "Calc22", "value": "+8%"},
      {"measurement": "Reaction (CHP anti-proliferation activity)", "setting": "Capanl", "value": "−66", "unit": "%"},
      {"measurement": "Reaction (CHP anti-proliferation activity)", "setting": "Colo205", "value": "−66", "unit": "%"},
      {"measurement": "Reaction (CHP anti-proliferation activity)", "setting": "Colo320DM", "value": "−11", "unit": "%"},
      {"measurement": "Reaction (CHP anti-proliferation activity)", "setting": "DLD1", "value": "−19.8", "unit": "%"},
      {"measurement": "Reaction (CHP anti-proliferation activity)", "setting": "Fib2 (PPH)", "value": "resistant"},
      {"measurement": "Reaction (CHP anti-proliferation activity)", "setting": "Fib3 (PPH)", "value": "−14", "unit": "%"},
      {"measurement": "Reaction (CHP anti-proliferation activity)", "setting": "HCT-15", "value": "−10", "unit": "%"},
      {"measurement": "Reaction (CHP anti-proliferation activity)", "setting": "HOS", "value": "−68", "unit": "%"},
      {"measurement": "Reaction (CHP anti-proliferation activity)", "setting": "HT29", "value": "−48", "unit": "%"},
      {"measurement": "Reaction (CHP anti-proliferation activity)", "setting": "JVSO", "value": "−15", "unit": "%"},
      {"measurement": "Reaction (CHP anti-proliferation activity)", "setting": "K562", "value": "−11", "unit": "%"},
      {"measurement": "Reaction (CHP anti-proliferation activity)", "setting": "MCF-7", "value": "−43", "unit": "%"},
      {"measurement": "Reaction (CHP anti-proliferation activity)", "setting": "MDA-MBA231", "value": "resistant"},
      {"measurement": "Reaction (CHP anti-proliferation activity)", "setting": "MIAPaCa2", "value": "−45.7", "unit": "%"},
      {"measurement": "Reaction (CHP anti-proliferation activity)", "setting": "Me128", "value": "resistant"},
      {"measurement": "Reaction (CHP anti-proliferation activity)", "setting": "PANC1", "value": "−54", "unit": "%"},
      {"measurement": "Reaction (CHP anti-proliferation activity)", "setting": "PC3", "value": "resistant"},
      {"measurement": "Reaction (CHP anti-proliferation activity)", "setting": "SW480 (Ccl228)", "value": "−58", "unit": "%"},
      {"measurement": "Reaction (CHP anti-proliferation activity)", "setting": "SW620(Ccl227)", "value": "−66.4", "unit": "%"},
      {"measurement": "Reaction (CHP anti-proliferation activity)", "setting": "T47D", "value": "−34", "unit": "%"},
      {"measurement": "Reaction (CHP anti-proliferation activity)", "setting": "WI38", "value": "resistant"},
      {"measurement": "PANC-1 control", "setting": "PANC-1 cells; CHP 3 μg/ml", "value": "98.8 ± 4.0"},
      {"measurement": "PANC-1 control", "setting": "PANC-1 cells; CHP 6.1 μg/ml", "value": "96.0 ± 6.0"},
      {"measurement": "PANC-1 control", "setting": "PANC-1 cells; CHP 12.5 μg/ml", "value": "90.8 ± 4.1"},
      {"measurement": "PANC-1 control", "setting": "PANC-1 cells; CHP 25 μg/ml", "value": "95.9 ± 5.1"},
      {"measurement": "PANC-1 control", "setting": "PANC-1 cells; CHP 50 μg/ml", "value": "94.8 ± 6.4"},
      {"measurement": "PANC-1 control", "setting": "PANC-1 cells; CHP 100 μg/ml", "value": "95.1 ± 2.3"},
      {"measurement": "BxPC3 control", "setting": "BxPC3 [2]; CHP 6.1 μg/ml", "value": "103.5 ± 2.6"},
      {"measurement": "BxPC3 control", "setting": "BxPC3 [2]; CHP 12.5 μg/ml", "value": "102.6 ± 1.7"},
      {"measurement": "BxPC3 control", "setting": "BxPC3 [2]; CHP 25 μg/ml", "value": "99.9 ± 3.1"},
      {"measurement": "BxPC3 control", "setting": "BxPC3 [2]; CHP 50 μg/ml", "value": "99.8 ± 4.3"},
      {"measurement": "BxPC3 control", "setting": "BxPC3 [2]; CHP 100 μg/ml", "value": "105.2 ± 5.4"}
    ]}
  ]
}
